Reference: patent US4742047A, “Semi-synthetic peptide antibiotics” (Bristol-Myers Company, priority 1986, dated 1988)

Key:
P388 leukemia = experiment: Antitumor effect against in vivo murine transplantable P388 leukemia; design: species or system mice
Method: (§1) Antitumor activity of representative compounds of the present invention was determined using in vivo murine transplantable P388 leukemia and B16 melanoma models.
P388 leukemia: female CDF1 and male BDF1 mice were inoculated by intraperitoneal injection of 0.8 ml diluted ascitic fluid containing 10^6 cells.
(§2) Test materials were dissolved in 0.9% saline containing 10% dimethyl sulfoxide and graded doses of them were administered to mice intraperitoneally 24 hrs after tumor implantation. Two dosing schedules were used for the p388 leukemia experiment: once daily on day 1 through day 3 (QD 1→3); and once daily on day 1 through day 9 (QD 1→9). The QD 1→9 schedule was used for the B16 melanoma experiment.
(§3) Antitumor activity is evaluated as the increase in mediam survival time (MST) of treated (T) and control (C) animals for various dosage regimens expressed as a percentage ratio (T/C %=MST of treated.div.MST of control×100). For both in vivo P388 leukemia and in vivo B16 melanoma models, values for percentage ratios of 125 and above indicate significant antitumor effect.

B16 melanoma = experiment: Antitumor effect against in vivo murine B16 melanoma; design: species or system mice; conditions: QD 1→9 ip
Method: as §1
B16 melanoma; male BDF1 mice were implanted with 0.5 ml of a 10% tumor brei intraperitoneally.
as §2, §3

ddy mice = conditions: single intraperitoneal administration
Method: The acute toxicity for compounds of Examples 1, 2, and 3 was determined in ddy mice by single intraperitoneal administration.

| SMILES | MST (% T/C) (P388 leukemia; 1 mg/kg/day, QD 1→3 ip) | MST (% T/C) (P388 leukemia; 3 mg/kg/day, QD 1→3 ip) | MST (% T/C) (P388 leukemia; .3 mg/kg/day, QD 1→3 ip) | MST (% T/C) (B16 melanoma; 1 mg/kg/day) | MST (% T/C) (B16 melanoma; 2 mg/kg/day) | MST (% T/C) (B16 melanoma; .13 mg/kg/day) | MST (% T/C) (B16 melanoma; .25 mg/kg/day) | MST (% T/C) (B16 melanoma; .5 mg/kg/day) | MST (% T/C) (P388 leukemia; 0.13 mg/kg/day, QD 1→9 ip) | MST (% T/C) (P388 leukemia; 0.25 mg/kg/day, QD 1→9 ip) | MST (% T/C) (P388 leukemia; 0.5 mg/kg/day, QD 1→9 ip) | MST (% T/C) (P388 leukemia; 0.63 mg/kg/day, QD 1→9 ip) | MST (% T/C) (P388 leukemia; 1 mg/kg/day, QD 1→9 ip) | MST (% T/C) (P388 leukemia; 2 mg/kg/day, QD 1→9 ip) | MST (% T/C) (P388 leukemia; 4 mg/kg/day, QD 1→9 ip) | MST (% T/C) (B16 melanoma; 4 mg/kg/day) | MST (% T/C) (P388 leukemia; 10 mg/kg/day, QD 1→3 ip) | LD50 (ddy mice) [mg/kg] |
| --- | --- | --- | --- | --- | --- | --- | --- | --- | --- | --- | --- | --- | --- | --- | --- | --- | --- | --- |
| CCCCCCCCC/C=C/C(=O)N[C@H](C(=O)NC1CC(O)CCNC(=O)/C=C/C(C)NC1=O)[C@@H](C)O (relative stereo) [Example 4, trans-2-Dodecenoyl-III] | 132 | 118 % T/C | 118 |  |  |  |  |  |  |  |  |  |  |  |  |  |  |  |
| CCCCCCCC=CC=CC(=O)NC(C(=O)NC1CC(O)CCNC(=O)C=CC(C)NC1=O)C(C)O (stereo not drawn) [BU-2867T A, reference compound] | 145 | Tox | 130 | 116 | Tox | 97 | 100 | 113 | 130 | 150 | 155 | 110 | 190 % T/C | Tox |  |  |  |  |
| CCCCCC=CCCC=CC=CC(=O)NC(C(=O)NC1CC(O)CCNC(=O)C=CC(C)NC1=O)C(C)O (stereo not drawn) [BU-2867T B, reference compound] |  |  |  | 126 | Tox | 108 | 111 | 118 | 125 | 130 | 145 | 130 | 170 % T/C | 180 % T/C | Tox |  |  |  |
| CCCCCCCCCC=CC=CC(=O)NC(C(=O)NC1CC(O)CCNC(=O)C=CC(C)NC1=O)C(C)O (stereo not drawn) [BU-2867T C, reference compound] | 124 | 129 % T/C |  | 113 | 132 % T/C | 103 | 103 | 103 | 130 | 160 | 155 | 115 | 170 % T/C | 205 % T/C | 65 % T/C | Tox | 57 |  |
| CCCCCCCCCCCC(=O)N[C@H](C(=O)NC1CC(O)CCNC(=O)/C=C/C(C)NC1=O)[C@@H](C)O (stereo partly drawn) [Example 1, n-Dodecanoyl-III] | 130 | 145 % T/C |  | 121 | 139 % T/C |  | 107 | 113 | 127 | 132 | 145 |  | 150 % T/C | 159 % T/C | 173 % T/C | 155 % T/C | 155 | 27 |
| CCCCCCCCCC(=O)N[C@H](C(=O)NC1CC(O)CCNC(=O)/C=C/C(C)NC1=O)[C@@H](C)O (stereo partly drawn) [Example 2, n-Decanoyl-III] | 123 | 127 % T/C |  |  |  |  |  |  | 109 | 123 | 123 |  | 127 % T/C | 145 % T/C | 155 % T/C |  | 64 | 50 |
| CCCCCCCCCCCCCC(=O)N[C@H](C(=O)NC1CC(O)CCNC(=O)/C=C/C(C)NC1=O)[C@@H](C)O (stereo partly drawn) [Example 3, n-Tetradecanoyl-III] | 127 | 132 % T/C |  | 116 | 124 % T/C |  | 113 | 113 | 118 | 132 | 132 |  | 150 % T/C | 150 % T/C | 159 % T/C | 145 % T/C | 55 | > 25 |
| CCCCCCCCCCCCCCC(O)C(=O)N[C@H](C(=O)NC1CC(O)CCNC(=O)/C=C/C(C)NC1=O)[C@@H](C)O (stereo partly drawn) [Example 5, 2-Hydroxy-hexadecanoyl-III] | 118 | 132 % T/C |  |  |  |  |  |  |  |  |  |  |  |  |  |  | 132 |  |
| CCCCCCCCOc1ccc(C(=O)N[C@H](C(=O)NC2CC(O)CCNC(=O)/C=C/C(C)NC2=O)[C@@H](C)O)cc1 (stereo partly drawn) [Example 6, p-n-Octyloxybenzoyl-III] | 150 | Tox | 125 |  |  |  |  |  | 140 | 150 | 155 | 120 | Tox |  |  |  |  |  |
| CCCCCCCCCCCCCCCC(=O)N[C@H](C(=O)NC1CC(O)CCNC(=O)/C=C/C(C)NC1=O)[C@@H](C)O (stereo partly drawn) [Example 10, Palmitoyl-L-Threonyl-II] | 114 | 119 % T/C |  |  |  |  |  |  |  |  |  |  |  |  |  |  | 138 |  |
